In patent publication US20260325561A1, “4'-SUBSTITUTED NUCLEOSIDES AND NUCLEOTIDES AS ANTIVIRAL AGENTS” (THE SCRIPPS RESEARCH INSTITUTE, priority 2023, published 2026):

Key:
DENV-2 = assay: microbe, parasite or virus in culture; assay type: cell-based, DENV-2 16681; conditions: Dengue virus, DENV2, HepG2, 24 h, read-out: DENV-2 / HepG2 EC50
in vitro [1] = conditions: human, hepg2 cells
SARS-CoV-2 = assay: microbe, parasite or virus in culture; assay type: cell-based, SARS-CoV-2 strain USA-WA1/2020; conditions: Severe acute respiratory syndrome coronavirus 2, HeLa-ACE2, 24 h, read-out: SARS-CoV-2 / HeLa-ACE2 EC50
in vitro [2] = conditions: human, hela-ace2 cells
CHIKV = assay: microbe, parasite or virus in culture; assay type: cell-based, CHIKV strain 181/25; conditions: Chikungunya virus, HepG2, 24 h, read-out: CHIKV / HepG2 EC50
Cytotoxicity, HFF = assay type: cell-based; conditions: human, hff cells; read-out: HCMV/HFF CC50
in vitro [3] = conditions: human, hep2 cells
HRV 14 = assay: microbe, parasite or virus in culture; assay type: cell-based, Human Rhinovirus 14 strain 1059; conditions: Rhinovirus B, H1-HeLa, 48 h, read-out: HRV / H1 HeLa B 14 EC50
RSV A2 = assay: microbe, parasite or virus in culture; assay type: cell-based; conditions: human respiratory syncytial virus, HEp-2, 72 h, read-out: RSV A2 / Hep2 EC50
HCMV = assay: HCMV/HFF antiviral assay; assay type: cell-based; conditions: Human betaherpesvirus 5, HFF
in vitro [4] = conditions: human, h1 hela cells
HRV 16 = assay: microbe, parasite or virus in culture; assay type: cell-based, Human Rhinovirus 16 strain 11757; conditions: Rhinovirus A, H1-HeLa, 48 h, read-out: HRV / H1 HeLa A16 EC50

SMILES | EC50 (DENV-2) | CC50 at 72 h (in vitro [1]) | EC50 (SARS-CoV-2) | CC50 at 24 h (in vitro [2]) | EC50 (CHIKV) | CC50 (Cytotoxicity, HFF) | CC50 (in vitro [3]) | EC50 (HRV 14) | EC50 (RSV A2) | EC50 (HCMV) | CC50 (in vitro [4]) | EC50 (HRV 16)
[N-]=[N+]=N[C@]1(CO)O[C@@H](n2ccc3c(N)ncnc32)[C@H](O)[C@@H]1O [Example 2, (2R,3S,4R,5R)-5-(4-amino-7H-pyrrolo[2,3-d]pyrimidin-7-yl)-2-azido-2-(hydroxymethyl)tetrahydrofuran-3,4-diol] | > 10 µM | > 99 µM | > 10 µM | > 99 µM | > 10 µM | – | – | – | – | – | – | –
Nc1ncnc2c1ccn2[C@@H]1O[C@](F)(CO)[C@@H](O)[C@]1(F)Cl [Example 6, (2S,3R,4S,5R)-5-(4-amino-7H-pyrrolo[2,3-d]pyrimidin-7-yl)-4-chloro-2,4-difluoro-2-(hydroxymethyl)tetrahydrofuran-3-ol] | > 10 µM | > 99 µM | > 10 µM | > 99 µM | – | > 99 µM | > 99 µM | > 10 µM | > 10 µM | > 10 µM | > 99 µM | –
[N-]=[N+]=N[C@]1(CO)O[C@@H](n2ccc3c(N)ncnc32)[C@@](F)(Cl)[C@@H]1O [Example 7, (2R,3R,4S,5R)-5-(4-amino-7H-pyrrolo[2,3-d]pyrimidin-7-yl)-2-azido-4-chloro-4-fluoro-2-(hydroxymethyl)tetrahydrofuran-3-ol] | > 10 µM | > 99 µM | > 10 µM | > 99 µM | – | > 99 µM | > 99 µM | > 10 µM | > 10 µM | > 10 µM | > 99 µM | –
O=c1[nH]cnc2c1ccn2[C@@H]1O[C@](F)(CO)[C@@H](O)[C@H]1O [Example 16, 7-((2R,3R,4S,5S)-5-fluoro-3,4-dihydroxy-5-(hydroxymethyl)tetrahydrofuran-2-yl)-3,7-dihydro-4H-pyrrolo[2,3-d]pyrimidin-4-one] | > 10 µM | > 99 µM | > 10 µM | > 99 µM | – | > 99 µM | > 99 µM | > 10 µM | > 10 µM | > 10 µM | > 99 µM | > 10 µM
Nc1ncnc2c1c(CO)cn2[C@@H]1O[C@](F)(CO)[C@@H](O)[C@H]1O [Example 17, (2S,3S,4R,5R)-5-(4-amino-5-(hydroxymethyl)-7H-pyrrolo[2,3-d]pyrimidin-7-yl)-2-fluoro-2-(hydroxymethyl)tetrahydrofuran-3,4-diol] | > 10 µM | 10 to 99 µM | > 10 µM | > 99 µM | > 10 µM | – | – | – | – | – | – | –
Nc1ncnn2c([C@@H]3O[C@](F)(CO)[C@@H](O)[C@H]3O)cnc12 [Example 19, (2S,3S,4R,5S)-5-(4-aminoimidazo[2,1-f][1,2,4]triazin-7-yl)-2-fluoro-2-(hydroxymethyl)tetrahydrofuran-3,4-diol] | 0.1 to 1 µM | < 1 µM | 1 to 10 µM | 1 to 10 µM | 0.1 to 1 µM | – | 1 to 10 µM | > 10 µM | > 10 µM | – | 1 to 10 µM | > 10 µM
Nc1ncnc2c1ccn2[C@@H]1C[C@](F)(CO)[C@@H](O)[C@H]1O [Example 30, (1S,2S,3S,5R)-5-(4-amino-7H-pyrrolo[2,3-d]pyrimidin-7-yl)-3-fluoro-3-(hydroxymethyl)cyclopentane-1,2-diol] | > 10 µM | 10 to 99 µM | > 10 µM | 10 to 99 µM | > 10 µM | – | 1 to 10 µM | > 10 µM | 0.1 to 1 µM | – | 10 to 99 µM | > 10 µM
OC[C@@]1(F)O[C@@H](n2cc(Cl)c3cncnc32)[C@H](O)[C@@H]1O [Example 36, (2S,3S,4R,5R)-5-(5-chloro-7H-pyrrolo[2,3-d]pyrimidin-7-yl)-2-fluoro-2-(hydroxymethyl)tetrahydrofuran-3,4-diol] | < 0.1 µM | < 1 µM | 0.1 to 1 µM | 1 to 10 µM | – | 1 to 10 µM | 10 to 99 µM | > 10 µM | 1 to 10 µM | 0.1 to 1 µM | 10 to 99 µM | –
C#C[C@]1(O)[C@H](n2ccc(N)nc2=O)O[C@](F)(CO)[C@H]1O [Example 44, 4-amino-1-((2R,3R,4S,5S)-3-ethynyl-5-fluoro-3,4-dihydroxy-5-(hydroxymethyl)tetrahydrofuran-2-yl)pyrimidin-2(1H)-one] | > 10 µM | > 99 µM | > 10 µM | > 99 µM | – | – | 10 to 99 µM | > 10 µM | > 10 µM | – | 10 to 99 µM | > 10 µM
CC(=O)O[C@H]1[C@H](n2ncc(=O)[nH]c2=O)O[C@](F)(COC(=O)c2ccccc2)[C@H]1OC(C)=O [Example 45, (2S,3S,4R,5R)-2-((benzoyloxy)methyl)-5-(3,5-dioxo-4,5-dihydro-1,2,4-triazin-2(3H)-yl)-2-fluorotetrahydrofuran-3,4-diyl diacetate] | > 10 µM | > 99 µM | > 10 µM | > 99 µM | – | – | > 99 µM | > 10 µM | > 10 µM | – | > 99 µM | > 10 µM
N#Cc1ncnc2c1ccn2[C@@H]1O[C@](F)(COC(=O)c2ccccc2)[C@@H](O)[C@H]1OC(=O)c1ccccc1 [Example 50, ((2S,3S,4R,5R)-4-(benzoyloxy)-5-(4-cyano-7H-pyrrolo[2,3-d]pyrimidin-7-yl)-2-fluoro-3-hydroxytetrahydrofuran-2-yl)methyl benzoate] | 0.1 to 1 µM | 1 to 10 µM | > 10 µM | 10 to 99 µM | – | – | 10 to 99 µM | > 10 µM | > 10 µM | – | 10 to 99 µM | > 10 µM
CNc1nc(N)nc2c1ccn2[C@@H]1O[C@](F)(COC(=O)c2ccccc2)[C@@H](O)[C@H]1O [Example 56, ((2S,3S,4R,5R)-5-(2-amino-4-(methylamino)-7H-pyrrolo[2,3-d]pyrimidin-7-yl)-2-fluoro-3,4-dihydroxytetrahydrofuran-2-yl)methyl benzoate] | > 10 µM | > 99 µM | > 10 µM | > 99 µM | – | – | > 99 µM | > 10 µM | > 10 µM | – | > 99 µM | > 10 µM
CCOc1nc(N)nc2c1ncn2[C@@H]1O[C@](F)(CO)[C@@H](O)C1(F)F [Example 60, (2S,3R,5R)-5-(2-amino-6-ethoxy-9H-purin-9-yl)-2,4,4-trifluoro-2-(hydroxymethyl)tetrahydrofuran-3-ol] | > 10 µM | > 99 µM | > 10 µM | > 99 µM | – | > 99 µM | > 99 µM | > 10 µM | > 10 µM | > 10 µM | > 99 µM | –
CCOc1nc(N)nc2c1ncn2[C@@H]1O[C@](F)(CO)[C@@H](O)[C@@]1(C)Cl [Example 63, (2S,3R,4R,5R)-5-(2-amino-6-ethoxy-9H-purin-9-yl)-4-chloro-2-fluoro-2-(hydroxymethyl)-4-methyltetrahydrofuran-3-ol] | > 10 µM | 10 to 99 µM | > 10 µM | > 99 µM | – | – | > 99 µM | > 10 µM | > 10 µM | > 10 µM | > 99 µM | –
CCOc1nc(N)nc2c1ncn2[C@@H]1O[C@](F)(CO)[C@@H](O)[C@]1(F)Cl [Example 66, (2S,3R,4S,5R)-5-(2-amino-6-ethoxy-9H-purin-9-yl)-4-chloro-2,4-difluoro-2-(hydroxymethyl)tetrahydrofuran-3-ol] | > 10 µM | > 99 µM | > 10 µM | > 99 µM | – | – | > 99 µM | > 10 µM | > 10 µM | > 10 µM | > 99 µM | –
CCOc1nc(N)nc2c1ncn2[C@@H]1O[C@](F)(COP(=O)(N[C@@H](C)C(=O)OC(C)C)Oc2ccccc2)[C@@H](O)C1(F)F (stereo partly drawn) [Example 69, isopropyl ((((2S,3R,5R)-5-(2-amino-6-ethoxy-9H-purin-9-yl)-2,4,4-trifluoro-3-hydroxytetrahydrofuran-2-yl)methoxy)(phenoxy)phosphoryl)-L-alaninate] | 1 to 10 µM | 10 to 99 µM | > 10 µM | 10 to 99 µM | – | – | 10 to 99 µM | > 10 µM | > 10 µM | > 10 µM | 10 to 99 µM | –
Nc1nc2c(ncn2[C@@H]2O[C@](F)(CO)[C@@H](O)C2(F)F)c(=O)[nH]1 [Example 71, 2-amino-9-((2R,4R,5S)-3,3,5-trifluoro-4-hydroxy-5-(hydroxymethyl)tetrahydrofuran-2-yl)-1,9-dihydro-6H-purin-6-one] | > 10 µM | > 99 µM | > 10 µM | > 99 µM | – | – | > 99 µM | > 10 µM | > 10 µM | > 10 µM | > 99 µM | –
